What was measured:
Test in all cases: selective drug sensitivity score (sDSS, relative to normal bone marrow) (sDSS (score)); higher = more potent and effective on the cell line relative to normal bone marrow cells
Conditions in all cases: 72 h
JURKAT = test system: JURKAT
MN-60 = test system: MN-60
LC4-1 = test system: LC4-1
DND-41 = test system: DND-41
ALL-SIL = test system: ALL-SIL
P30-OHKUBO = test system: P30-OHKUBO
MHH-CALL-4 = test system: MHH-CALL-4
KASUMI-9 = test system: KASUMI-9
NALM-6 = test system: NALM-6
REH = test system: REH
KARPAS-45 = test system: KARPAS-45
ALL-PO = test system: ALL-PO
MOLT-14 = test system: MOLT-14
PF-382 = test system: PF-382
P12-ICHIKAWA = test system: P12-ICHIKAWA
KASUMI-2 = test system: KASUMI-2
HPB-ALL = test system: HPB-ALL
COG-LL-394h = test system: COG-LL-394h
NALL-1 = test system: NALL-1
COG-LL-332h = test system: COG-LL-332h
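Note: ALL cell lines in 384-well plates, five doses spanning 10,000-fold, each plate scaled between vehicle and 100 µmol/L benzalkonium chloride controls, sDSS an adapted area-under-curve metric.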

| SMILES | selective drug sensitivity score (JURKAT) | selective drug sensitivity score (MN-60) | selective drug sensitivity score (LC4-1) | selective drug sensitivity score (DND-41) | selective drug sensitivity score (ALL-SIL) | selective drug sensitivity score (P30-OHKUBO) | selective drug sensitivity score (MHH-CALL-4) | selective drug sensitivity score (KASUMI-9) | selective drug sensitivity score (NALM-6) | selective drug sensitivity score (REH) | selective drug sensitivity score (KARPAS-45) | selective drug sensitivity score (ALL-PO) | selective drug sensitivity score (MOLT-14) | selective drug sensitivity score (PF-382) | selective drug sensitivity score (P12-ICHIKAWA) | selective drug sensitivity score (KASUMI-2) | selective drug sensitivity score (HPB-ALL) | selective drug sensitivity score (COG-LL-394h) | selective drug sensitivity score (NALL-1) | selective drug sensitivity score (COG-LL-332h) |
| --- | --- | --- | --- | --- | --- | --- | --- | --- | --- | --- | --- | --- | --- | --- | --- | --- | --- | --- | --- | --- |
| CC(C)(C)NC(=O)[C@H]1CC[C@H]2[C@@H]3CC[C@H]4NC(=O)C=C[C@]4(C)[C@H]3CC[C@]12C [Finasteride] (top concentration 10000 nM) | -0.52 | -0.52 | 2.08 | 2.98 | 1.78 | -0.52 | 1.88 | -0.12 | -0.52 | -0.52 | -0.52 | 0.48 | -0.52 | -0.52 | -0.52 | 0.78 | 0.28 | -0.52 | 3.48 | -0.52 |
| Cc1ccc(NC(=O)c2ccc(CN3CC[C@H](N(C)C)C3)c(C(F)(F)F)c2)cc1Nc1nccc(-c2cncnc2)n1 [Bafetinib] (top concentration 1000 nM) | 0 | 4 | 0.4 | 1 | 34 | 0 | 0 | 0 | 0 | 0.2 | 0 | 0 | 0.3 | 0 | 0 | 0.3 | 0 | 3 | 0 | 12.3 |
| O=C(Nc1ccc(OC(F)(F)Cl)cc1)c1cnc(N2CC[C@@H](O)C2)c(-c2cc[nH]n2)c1 [Asciminib] (top concentration 1000 nM) | -0.58 | -1.98 | -1.98 | 0.22 | 31.2 | -0.58 | 7.12 | -1.68 | 0.42 | -1.98 | -1.98 | -0.28 | -0.28 | -1.78 | -1.98 | -1.98 | 1.62 | 4.52 | 3.62 | 5.62 |
| CN1CCN(CCOc2cc(OC3CCOCC3)c3c(Nc4c(Cl)ccc5c4OCO5)ncnc3c2)CC1 [Saracatinib] (top concentration 10000 nM) | -0.62 | 3.38 | 2.98 | 2.18 | 17.7 | 5.58 | -2.02 | 2.98 | -1.22 | -2.02 | 5.68 | -0.02 | 7.98 | 8.18 | 0.08 | 1.78 | -1.02 | -2.02 | -2.02 | 7.38 |
| CC[C@]1(O)C[C@H]2CN(CCc3c([nH]c4ccccc34)[C@@](C(=O)OC)(c3cc4c(cc3OC)N(C)[C@H]3[C@@](O)(C(=O)OC)[C@H](OC(C)=O)[C@]5(CC)C=CCN6CC[C@]43[C@@H]65)C2)C1 [Vinblastine] (top concentration 1000 nM) | 0.5 | -2.4 | 13.6 | -0.7 | 5.2 | 9.8 | -5.6 | 14.9 | 6.3 | 7.1 | -4.2 | 7.2 | -2.5 | -5.3 | -3.5 | 6.7 | 19.7 | -0.1 | -3.8 | -4.2 |
| O=C(c1ccc(C(=O)N2CCC(N3CCCC3)CC2)c(Nc2ccccc2)c1)N1CCC(N2CCCC2)CC1 [UNC1215] (top concentration 10000 nM) | 0 | 0 | 0 | 0 | 0.4 | 0 | 0 | 0 | 0 | 0.5 | 0 | 0 | 0 | 0 | 0 | 0 | 0 | 0 | 0 | 0 |
| C[C@@H]1CN(Cc2ccc(F)cc2)[C@@H](C)CN1C(=O)c1cc2c(C(=O)C(=O)N(C)C)cn(C)c2cc1Cl [Talmapimod] (top concentration 10000 nM) | 0.9 | 0 | 0 | 0.5 | 2.1 | 0.2 | 0 | 0 | 0 | 2.8 | 0 | 3.2 | 0 | 0 | 0 | 0 | 0 | 0.7 | 0 | 0 |
| CCCS(=O)(=O)Nc1ccc(F)c(C(=O)c2c[nH]c3ncc(-c4ccc(Cl)cc4)cc23)c1F [Vemurafenib] (top concentration 10000 nM) | 2.26 | -1.14 | 3.56 | 3.66 | 3.06 | 3.86 | -0.94 | 1.66 | -1.14 | 4.86 | 4.16 | 2.46 | 2.66 | 3.56 | 4.16 | -1.14 | -0.44 | -1.14 | -0.34 | 2.96 |
| CN(C)C/C=C/C(=O)Nc1cc2c(Nc3ccc(F)c(Cl)c3)ncnc2cc1O[C@H]1CCOC1 [Afatinib] (top concentration 1000 nM) | 0.16 | -0.84 | -0.84 | -0.84 | -0.84 | 1.56 | -0.84 | 2.16 | -0.84 | 5.46 | 1.06 | -0.64 | -0.84 | -0.84 | -0.74 | -0.84 | -0.84 | -0.84 | -0.84 | -0.84 |
| COc1cc(OC2CCN(C)CC2)ccc1Nc1ncc2c(n1)n(C1CCCC1)c(=O)n2C [AZ3146] (top concentration 10000 nM) | 0.24 | -0.16 | 3.14 | 0.24 | 2.14 | -0.06 | 0.64 | -0.36 | 3.04 | 1.14 | 0.94 | 3.44 | 2.04 | -0.86 | 0.64 | -4.16 | 3.14 | 1.04 | -2.16 | 1.34 |
| C[C@H]1Oc2cc(cnc2N)-c2c(nn(C)c2C#N)CN(C)C(=O)c2ccc(F)cc21 (top concentration 1000 nM) | -0.72 | -0.72 | -0.72 | -0.72 | -0.32 | -0.02 | -0.72 | -0.72 | -0.72 | -0.72 | -0.72 | -0.72 | -0.72 | -0.72 | -0.72 | 4.68 | -0.72 | -0.72 | -0.72 | -0.72 |
| CCOc1cc2ncc(C#N)c(Nc3ccc(OCc4ccccn4)c(Cl)c3)c2cc1NC(=O)/C=C/CN(C)C [Neratinib] (top concentration 1000 nM) | 1.48 | 0.38 | 3.58 | -0.62 | 1.08 | 2.78 | -0.22 | 3.68 | 0.48 | -0.12 | 2.28 | 5.28 | 4.28 | 0.88 | 1.28 | -0.72 | 2.38 | 5.48 | -0.32 | 1.88 |
| CC/C(=C(\c1ccc(O)cc1)c1ccc(OCCN(C)C)cc1)c1ccccc1 [4-hydroxytamoxifen] (top concentration 10000 nM) | 2.02 | -2.08 | 0.72 | 2.72 | 1.22 | 4.12 | 0.42 | 3.62 | 0.02 | 4.02 | 1.52 | 3.12 | 0.32 | 2.52 | 2.02 | -3.78 | 0.52 | 2.12 | -1.78 | 0.82 |
| COCC1(CO)C(=O)C2CCN1CC2 (stereo not given) [APR-246] (top concentration 10000 nM) | -1.16 | -1.16 | 0.74 | -1.16 | -1.16 | -0.76 | 0.64 | -0.66 | 1.14 | -1.16 | -1.16 | -1.16 | -1.16 | -1.16 | -1.16 | -1.16 | 2.14 | -1.16 | -1.16 | -0.56 |
| C=CC(=O)Nc1cccc(Nc2nc(Nc3ccc(OCCOC)cc3)ncc2F)c1 [Spebrutinib] (top concentration 1000 nM) | 0.74 | -0.16 | 0.54 | -0.16 | 1.64 | 4.64 | 3.24 | 4.84 | 2.04 | -0.16 | 1.14 | 4.14 | -0.16 | -0.16 | -0.16 | -0.16 | -0.16 | -0.16 | 6.34 | -0.16 |
| O=C1Cc2cc(C(=O)NC3C[C@H]4CC[C@@H](C3)N4S(=O)(=O)CC3CCN(CCCC(F)(F)F)CC3)c(Cl)cc2N1 (stereo not given in full) (top concentration 10000 nM) | 0 | 0 | 0 | 0 | 0 | 0.5 | 0 | 0.6 | 0 | 3.5 | 0 | 0 | 0 | 0 | 0 | 0 | 0.5 | 0 | 0.6 | 0 |
| Clc1ccc(Nc2nnc(Cc3ccncc3)c3ccccc23)cc1 [Vatalanib] (top concentration 10000 nM) | 0 | 0.1 | 0 | 0 | 0.1 | 0 | 0.1 | 0 | 0 | 0 | 0 | 0 | 0 | 0 | 0 | 0 | 0 | 0 | 0 | 0.7 |
| OC[C@H]1O[C@@H](n2cnc3c2N=CNC[C@H]3O)C[C@@H]1O [Pentostatin] (top concentration 10000 nM) | -0.44 | -0.44 | -0.44 | -0.44 | -0.44 | -0.44 | -0.44 | -0.44 | -0.44 | -0.44 | -0.14 | -0.44 | -0.24 | -0.44 | -0.44 | -0.44 | -0.44 | -0.44 | -0.44 | -0.44 |
